Assay results as given in article PMC10250618, “Synthesis, structure-activity relationships and biological evaluation of benzimidazole derived sulfonylurea analogues as a new class of antagonists of P2Y1 receptor” (Frontiers in Pharmacology, 2023).
In brackets after ≈: the same amount, converted by molar mass. Where a name gives a salt, the structure may show the parent alone. Read-outs that look alike come from different tables or passages of the source.

Legend:
r-P2Y6 = biological target: T1, r-P2Y6 (Rattus norvegicus, UniProt Q63371); assay: Calcium mobilization assay, r-P2Y6 transfected 1321N1 astrocytoma cells; type: cell-based; settings: for inhibition at 100 µM: 1321-N1, final conc of 100 μM; for inhibition at 100 µM / IC50: 100 μM of UDP; for IC50: Ca2+ mobilization inhibition, transfected 1321N1 cells, read-out: IC50 ± SEM r-P2Y6
T1 construct: host or cells: human 1321N1 astrocytoma cells, stably transfected
Description: (§1) Dr. Gary A. Weisman provided human-1321N1 astrocytoma cells that had been transfected by the tP2Y1R, hP2Y2R, hP2Y4R, and rP2Y6R and untransfected 1321N1 astrocytoma cells (University of Missouri Mo., Bond Life Science Center). The DMEM Dulbecco’s Modified Eagle -Medium (Gibco) was added in flasks to cultivate the cell line. 10% of the Fetal bovine serum was also added to the media together with 500 μg/mL of Geneticin (G418) and 1% of the Pen/Strep. The cells in T-75 flask were then cultured and incubated in a CO2 incubator which was maintained at (5%) and 37°C temperature until 90% of the cells were confluent. Throughout the experiment, cells were periodically checked for the confluency and strictly watched for the microbial contamination.
(§2) The FLUOstar Galaxy (BMG LABTECH GmbH, Ortenberg, Germany) microplate reader with two injectors was used to measure the Ca^2+ fluorescence of synthetic compounds. For this assay, 1321N1 transfected cells (t-P2Y1, h-P2Y2, h-P2Y4, and r-P2Y6) were cultured in T-75 flask. When cells reached the confluency of 80%–90%, they were washed with PBS and then Trypsin was added. After trypsinization for 3 min, 20,000 cells/well were allowed to seed in a black wall and 96 well clear bottom plate which was coated with Poly-D-Lysine and allowed to incubate for 24 h in 37°C, 5% CO2 incubator. After incubation, 200 μL culture media was changed with 100 μL HBSS containing Fura-2 AM which is calcium chelating dye and allowed the plate to incubate for 45 min in dark at temp of 37°C in incubator which is maintained with carbon dioxide (5% CO2). After incubation for 45 min, synthesized molecules were added to HBSS washed cells in each well of 96 well plate and re-incubated for 30 min at 37°C. In next step, injection of the endogenous ligand such as ADP through the injector was followed by excitation and emission measurements of Fura-2 AM at 380/520 nm and 340/520. Final volume of the assay per well 200 μL. IC50 values were computed for the compounds displaying more than 50% of activity using Prism 5.0 software (Graph Pad., Inc., San Diego. California, United States) by using analysis i.e., nonlinear regression ([Kassack et al., 2002]; [Ullmann et al., 2005]).

MTT assay, HEK-293 = type: cell-based; settings: human, HEK-293 cells; at 50 µM; triplicate; read-out: HEK-293 Cell Line (%cytotoxicity ±SEM)
t-P2Y1 = biological target: T2, t-P2Y1 (Meleagris gallopavo, UniProt P49652); assay: Calcium mobilization assay, t-P2Y1 transfected 1321N1 astrocytoma cells; type: cell-based; settings: for IC50: Ca2+ mobilization inhibition, transfected 1321N1 cells, read-out: IC50 ± SEM t-P2Y1; for IC50 / inhibition at 100 µM: 100 μM ADP; for inhibition at 100 µM: 1321-N1, final conc of 100 μM
T2 construct: host or cells: human 1321N1 astrocytoma cells, stably transfected
Description: as §1, §2

h-P2Y2 = biological target: T3, h-P2Y2 (Homo sapiens, UniProt P41231); assay: Calcium mobilization assay, h-P2Y2 transfected 1321N1 astrocytoma cells; type: cell-based; settings: 500 μM ATP; for IC50: Ca2+ mobilization inhibition, transfected 1321N1 cells, read-out: IC50 ± SEM h-P2Y2; for inhibition at 100 µM: 1321-N1, final conc of 100 μM
T3 construct: host or cells: human 1321N1 astrocytoma cells, stably transfected
Description: as §1, §2

MTT assay, HeLa = type: cell-based; settings: human, HeLa cells; at 50 µM; triplicate; read-out: HeLa Cell Line (%cytotoxicity ±SEM)
h-P2Y4 = biological target: T4, h-P2Y4 (Homo sapiens, UniProt P51582); assay: Calcium mobilization assay, h-P2Y4 transfected 1321N1 astrocytoma cells; type: cell-based; settings: 500 μM UTP; for IC50: Ca2+ mobilization inhibition, transfected 1321N1 cells, read-out: IC50 ± SEM h-P2Y4; for inhibition at 100 µM: 1321-N1, final conc of 100 μM, read-out: % Inhibition h-P2Y4
T4 construct: host or cells: human 1321N1 astrocytoma cells, stably transfected
Description: as §1, §2

[1] = MTT assay, non-transfected 1321N1 astrocytoma cells; type: cell-based, human; settings: human, non-transfected 1321N1 astrocytoma cells; at 50 µM; non-transfected astrocytoma 1321N1 cells; triplicate; read-out: H-1321N1 Cell Line (%cytotoxicity ±SEM)
Description: A 96-well plate was used to plate 20,000 human 1321N1 astrocytoma cells and allowed for incubation for 24 h at temp of 37°C in CO2 (5%) incubator. Next to this, the prepared culture media was changed to media which was free from FBS, the test compounds were added and the incubation process was repeated. After incubation of 24 h, the serum free media from the wells was discarded, and 100 μL of the reagent i.e., MTT reagent was pipetted. Plate was then additionally incubated at 37°C for 4 h. Utilizing a microplate reader, absorbance was determined at 570 nm and 630 nm for calculation of cell viability (FLUOstarOmega Microplate Reader-BMG LABTECH GmbH, Ortenberg, Germany) ([Sauer et al., 2009]).

[2] = Aqueous solubility assay (UV absorption); type: physicochemical
Description: In eppendorf tubes, over-saturated chemical solutions were prepared by mixing synthesized compound with PBS buffer (pH 7.4). To confirm compound saturation, suspensions were rapidly vortexed for 1 min, sonicated at ambient temperature for 10 min, and then incubated with overnight shaking. After that, compound suspensions were centrifuged at 15,000 RPM for 20 min. Supernatants were cautiously taken out of the tubes and filtered once more using 0.22 µm syringe filters. By using UV-vis absorption spectrometry with standard curves and an already-determined absorption extinction coefficient in the same buffer, the concentrations of the drug in the supernatants were identified.

[3] = was reported; cited from earlier work
hP2Y1 = biological target: hP2Y1; set-up: method as in Peng et al., 2018; settings: Figure 1, reported antagonist; ref Peng et al., 2018; cited from earlier work
P2Y12 = test system: P2Y12; set-up: method as in Oestreich, 2010; Boldron et al., 2014; settings: Figure 1, reported antagonists; ref Oestreich, 2010; Boldron et al., 2014; cited from earlier work
P2X3 = test system: P2X3; set-up: method as in Bae et al., 2022; settings: Figure 1, reported antagonist; ref Bae et al., 2022; cited from earlier work

T2 sequence (P49652 whole entry): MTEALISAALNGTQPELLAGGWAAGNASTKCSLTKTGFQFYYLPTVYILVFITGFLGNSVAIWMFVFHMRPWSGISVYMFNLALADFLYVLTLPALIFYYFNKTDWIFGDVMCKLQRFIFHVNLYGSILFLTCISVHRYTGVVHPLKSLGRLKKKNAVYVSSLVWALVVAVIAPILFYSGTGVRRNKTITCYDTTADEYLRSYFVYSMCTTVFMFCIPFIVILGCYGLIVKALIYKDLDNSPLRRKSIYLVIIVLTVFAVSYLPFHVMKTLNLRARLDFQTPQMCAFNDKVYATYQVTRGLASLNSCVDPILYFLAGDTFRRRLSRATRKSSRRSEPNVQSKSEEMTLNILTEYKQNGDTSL
T1 sequence (Q63371 whole entry): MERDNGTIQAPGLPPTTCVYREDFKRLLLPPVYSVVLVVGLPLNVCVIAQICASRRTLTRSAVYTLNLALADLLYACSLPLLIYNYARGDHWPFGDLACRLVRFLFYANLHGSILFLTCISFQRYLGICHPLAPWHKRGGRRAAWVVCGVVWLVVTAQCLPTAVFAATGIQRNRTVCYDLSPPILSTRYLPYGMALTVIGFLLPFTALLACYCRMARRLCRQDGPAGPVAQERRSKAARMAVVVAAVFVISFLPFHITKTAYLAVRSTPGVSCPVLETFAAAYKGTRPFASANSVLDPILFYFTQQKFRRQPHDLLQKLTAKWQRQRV
T3 sequence (P41231 whole entry): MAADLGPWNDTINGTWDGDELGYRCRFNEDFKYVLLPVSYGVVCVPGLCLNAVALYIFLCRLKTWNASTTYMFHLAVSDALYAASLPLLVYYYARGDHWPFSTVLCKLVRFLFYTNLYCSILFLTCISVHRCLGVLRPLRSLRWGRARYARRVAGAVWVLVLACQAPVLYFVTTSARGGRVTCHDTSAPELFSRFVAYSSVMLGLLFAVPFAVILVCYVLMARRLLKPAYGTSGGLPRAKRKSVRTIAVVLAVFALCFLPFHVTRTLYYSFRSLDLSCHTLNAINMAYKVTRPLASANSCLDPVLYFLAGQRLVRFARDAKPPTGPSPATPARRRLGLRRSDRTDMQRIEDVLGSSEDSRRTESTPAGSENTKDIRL
T4 sequence (P51582 whole entry): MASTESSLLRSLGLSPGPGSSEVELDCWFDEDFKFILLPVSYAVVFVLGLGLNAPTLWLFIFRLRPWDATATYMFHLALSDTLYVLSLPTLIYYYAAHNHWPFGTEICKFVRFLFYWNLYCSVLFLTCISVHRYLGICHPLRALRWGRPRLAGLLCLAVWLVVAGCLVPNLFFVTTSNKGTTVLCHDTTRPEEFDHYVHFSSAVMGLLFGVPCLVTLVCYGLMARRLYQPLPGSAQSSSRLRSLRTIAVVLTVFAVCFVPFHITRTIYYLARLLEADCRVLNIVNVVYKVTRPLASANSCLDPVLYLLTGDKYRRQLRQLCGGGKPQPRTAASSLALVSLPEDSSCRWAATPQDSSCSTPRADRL

| IC50 (t-P2Y1) [µM] | Compound | melting point [°C] | inhibition at 100 µM (r-P2Y6) [%] | cytotoxicity at 24 h, 50 µM (MTT assay, HEK-293) [%] | cytotoxicity at 24 h, 50 µM (MTT assay, HeLa) [%] | cytotoxicity at 24 h, 50 µM [1] [%] | inhibition at 100 µM (h-P2Y4) [%] | inhibition at 100 µM (h-P2Y2) [%] | other results |
| --- | --- | --- | --- | --- | --- | --- | --- | --- | --- |
| 14.6 ± 1.01 | O=C(NS(=O)(=O)c1ccccc1)n1c(Cl)nc2ccccc21 [1q, 2-Chloro-N-(phenylsulfonyl)-1H-benzo [d]imidazole-1-carboxamide] | 179 to 181 | 48 | 30.1 ± 0.2 | 29.7 ± 1.1 | 33.6 ± 0.7 | 13 |  | IC50 (h-P2Y2): 13.6 ± 1.97 µM |
| 23.44 ± 0.22 | O=C(NS(=O)(=O)c1ccc(-c2ccccc2)cc1)n1c(Cl)nc2ccccc21 [1r, N-([1.1′-biphenyl]-4-ylsulfonyl)-2-chloro-1H-benzo [d]imidazole-1-carboxamide] | 172 to 174 | 34 | 33.2 ± 0.1 | 26.5 ± 0.5 | 31.5 ± 0.4 | 22 | 47 |  |
| 3.11 ± 0.23 | O=C(NS(=O)(=O)c1ccc(Cl)cc1)n1c(Cl)nc2ccccc21 [1s, 2-Chloro-N-((4-chlorophenyl)sulfonyl)-1H-benzo [d]imidazole-1-carboxamide] | 180 to 182 |  | 12.1 ± 0.7 | 19.5 ± 0.2 | 14.4 ± 0.2 |  |  | IC50 (r-P2Y6): 12.7 ± 1.02 µM; IC50 (h-P2Y2): 6.15 ± 1.08 µM; IC50 (h-P2Y4): 2.67 ± 0.07 µM |
| 6.04 ± 1.03 | O=C(NS(=O)(=O)c1ccc([N+](=O)[O-])cc1)n1c(Cl)nc2ccccc21 [1t, 2-Chloro-N-((4-nitrophenyl)sulfonyl)-1H-benzo [d]imidazole-1-carboxamide] | 166 to 168 |  | 21.4 ± 1.1 | 20.3 ± 0.4 | 27.6 ± 0.4 | 26 | 42 | IC50 (r-P2Y6): 12.4 ± 1.1 µM |
|  | COc1ccc(S(=O)(=O)NC(=O)n2c(OC)nc3ccccc32)cc1 [1u, 2-Methoxy-N-((4-methoxyphenyl)sulfonyl)-1H-benzo [d]imidazole-1-carboxamide] | 177 to 179 | 18 | 32.2 ± 0.9 | 21.7 ± 0.6 | 25.5 ± 0.3 | 30 | 10 | inhibition at 100 µM (t-P2Y1): 31% |
|  | COc1nc2ccccc2n1C(=O)NS(=O)(=O)c1ccc(Cl)cc1 [1v, N-((4-chlorophenyl)sulfonyl)-2-methoxy-1H-benzo [d]imidazole-1-carboxamide] | 152 to 154 | 19 | 12.2 ± 0.7 | 24.1 ± 0.3 | 19.7 ± 0.1 | 23 | 19 | inhibition at 100 µM (t-P2Y1): 42% |
|  | Cc1ccc(S(=O)(=O)NC(=O)n2c(N)nc3ccccc32)cc1 [1w, 2-Amino-N-tosyl-1H-benzo [d]imidazole-1-carboxamide] | 165 to 167 | 39 | 27.4 ± 0.3 | 21.3 ± 0.5 | 23.2 ± 0.3 | 41 | 23 | inhibition at 100 µM (t-P2Y1): 49% |
| 10 ± 0.12 | Cc1ccc(S(=O)(=O)NC(=O)n2c(N)nc3cc(Cl)ccc32)cc1 [1x, 2-Amino-5-chloro-N-tosyl-1H-benzo [d]imidazole-1-carboxamide] | 188 to 190 | 41 | 32.1 ± 0.7 | 29.8 ± 1.5 | 12.6 ± 0.5 | 29 | 38 |  |
|  | Nc1nc2ccccc2n1C(=O)NS(=O)(=O)c1ccc(-c2ccccc2)cc1 [1y, N-([1.1′-biphenyl]-4-ylsulfonyl)-2-amino-1H-benzo [d]imidazole-1-carboxamide] | 176 to 178 | 23 | 39.7 ± 0.2 | 32.6 ± 0.3 | 43.1 ± 0.8 | 18 | 20 | inhibition at 100 µM (t-P2Y1): 12% |
|  | CC(C)(C)c1ccccc1Oc1ncccc1NC(=O)Nc1ccc(OC(F)(F)F)cc1 [BPTU, 1-(2-(2-tert-butyl-phenoxy)pyridin-3-yl)-3–4-(trifluoromethoxy) phenylurea] |  |  |  |  |  |  |  | solubility in water [3]: less than 0.1 mg/mL; Ki (hP2Y1): 0.006 µM |
|  | CNc1cc2[nH]c(=O)n(-c3ccc(NC(=O)NS(=O)(=O)c4ccc(Cl)s4)cc3)c(=O)c2cc1F [Elinogrel] |  |  |  |  |  |  |  | IC50 (P2Y12): 0.02 µM |
|  | Cc1nc2c([nH]1)C(=O)C(Cl)=C(Nc1ccc(F)c(F)c1)C2=O [KCB77033] |  |  |  |  |  |  |  | IC50 (P2X3): 1.03 µM |
|  | CCCC(=O)c1cnn(-c2ccc(NC(=O)c3cn(CC(=O)N4CCNCC4)c4ccc(Cl)cc34)nn2)c1C [SAR 216471 hydrochloride] |  |  |  |  |  |  |  | IC50 (P2Y12): 0.017 µM |

| Compound | IC50 (t-P2Y1) [µM] | melting point [°C] | inhibition at 100 µM (r-P2Y6) [%] | cytotoxicity at 24 h, 50 µM (MTT assay, HEK-293) [%] | cytotoxicity at 24 h, 50 µM (MTT assay, HeLa) [%] | cytotoxicity at 24 h, 50 µM [1] [%] | inhibition at 100 µM (h-P2Y4) [%] | inhibition at 100 µM (h-P2Y2) [%] | other results |
| --- | --- | --- | --- | --- | --- | --- | --- | --- | --- |
| Nc1nc2cc(Cl)ccc2n1C(=O)NS(=O)(=O)c1cc(Cl)cc(Cl)c1O [1h, 2-Amino-5-chloro-N-((3,5-dichloro-2-hydroxyphenyl)sulfonyl)-1H-benzo [d]imidazole-1-carboxamide] | 0.19 ± 0.04 | 124 to 126 | 34 | 27.4 ± 1.2 | 22.3 ± 0.8 | 32.8 ± 0.7 |  |  | activity against P2Y6 in words (r-P2Y6): inactive; inhibition of P2Y2 less as compared to P2Y1 (t-P2Y1; P2Y2 versus P2Y1): 20 fold; IC50 (h-P2Y2): 4.13 ± 1.02 µM; IC50 (h-P2Y4): 0.91 ± 0.04 µM; solubility ([2]; Figure 7, UV absorption at 384 nm): 287 µg/mL (≈ 659 µM); solubility ([2]; aqueous buffer, thermodynamic from solid, PBS buffer (pH 7.4), UV absorption spectroscopy, read-out: aqueous solubility): 287 µg/mL (≈ 659 µM) |
